Some test systems named below: TK-10 renal; RPMI-8226 leukemia; SF-539 CNS; OVCAR-3 ovarian; NCI-H460 lung; IGROV1 ovarian; SK-MEL-5 melanoma; SR leukemia; SK-MEL-28 melanoma; MDA-N; SN12C renal; MDA-MB-231 breast; NCI-H522 lung; HOP-62 NSCLC; K-562 leukemia; OVCAR-4 ovarian; A498 renal; SW-620 colon; NCI/ADR-RES ovarian; HOP-92 NSCLC.
Common to all, as to test: NCI-60 cell line screen, 48 h

This note sets out measurements from PubChem BioAssay (NCI).

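Cultured in 96-well plates, cells were exposed to test compound for 48 hours across five concentrations. TGI marks complete inhibition of growth.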

In the case of `CCn1c(SCC(=O)N/N=C2\SCC(=O)N2c2ccc(C)cc2)nc2ccccc2c1=O`, the TGI in the assay on TK-10 renal amounted to 31 µM; in the assay with RPMI-8226 leukemia, 52.7 µM; with SF-539 CNS, 33.5 µM; in the assay on OVCAR-3 ovarian, 62.9 µM; in the assay with NCI-H460 lung it was 57.4 µM; in the assay with IGROV1 ovarian it was 43.2 µM. Moreover, the TGI with SK-MEL-5 melanoma stood at 50 µM; in the assay with SR leukemia it was 47.2 µM; in the assay with SK-MEL-28 melanoma, 48.7 µM; in the assay with MDA-N it was 53.4 µM; in the assay on SN12C renal, 50.4 µM; in the assay on MDA-MB-231 breast, 36.3 µM. Also, the TGI with NCI-H522 lung is 62.1 µM; in the assay with HOP-62 NSCLC it was 50.7 µM; in the assay on K-562 leukemia it was more than 100 µM; in the assay on OVCAR-4 ovarian, 48.2 µM; in the assay with A498 renal, 38.4 µM; in the assay with SW-620 colon, more than 100 µM. The same compound registered a TGI with NCI/ADR-RES ovarian of 49.7 µM.

Consider `Cc1cc(N(CCC#N)CCC#N)ccc1/C(N=Nc1ccc([N+](=O)[O-])cc1)=N\NC(=O)c1cc(Cl)ccc1O`, for which the TGI in the assay on TK-10 renal was more than 100 µM; in the assay with RPMI-8226 leukemia, more than 100 µM; in the assay on SF-539 CNS, more than 100 µM; in the assay with OVCAR-3 ovarian, 38.2 µM; in the assay with NCI-H460 lung, more than 100 µM; in the assay on IGROV1 ovarian, more than 100 µM. Further, the TGI in the assay with SK-MEL-5 melanoma was more than 100 µM; in the assay on SR leukemia, more than 100 µM; with MDA-N, more than 100 µM; in the assay with SN12C renal it was more than 100 µM; in the assay with MDA-MB-231 breast it was more than 100 µM; with NCI-H522 lung it was 23.9 µM. Further, the TGI is more than 100 µM in the assay on HOP-62 NSCLC; more than 100 µM in the assay on K-562 leukemia; more than 100 µM with OVCAR-4 ovarian; 94.5 µM with A498 renal; more than 100 µM with NCI/ADR-RES ovarian.

In the case of `COc1ccc(CCN2CCN(CCCc3ccccc3)CC2)cc1`, the TGI with TK-10 renal, in the assay on RPMI-8226 leukemia, with SF-539 CNS, in the assay with OVCAR-3 ovarian, in the assay with NCI-H460 lung and in the assay on IGROV1 ovarian was more than 100 µM in each case. Also, the TGI in the assay with SK-MEL-5 melanoma was 56.9 µM; in the assay on SR leukemia, more than 100 µM; in the assay on SK-MEL-28 melanoma it was more than 100 µM; in the assay with MDA-N it was more than 100 µM; in the assay with SN12C renal it was more than 100 µM; in the assay on MDA-MB-231 breast it was more than 100 µM. In addition, the TGI with NCI-H522 lung, in the assay with HOP-62 NSCLC, in the assay with K-562 leukemia, with OVCAR-4 ovarian, with A498 renal and in the assay with SW-620 colon was more than 100 µM throughout. For the same compound, the TGI in the assay on NCI/ADR-RES ovarian is more than 100 µM.

In the case of `COC1OC2COC1(OCc1ccccc1)C1OC(C)(C)OC21` (stereo not given), the TGI in the assay on TK-10 renal, with RPMI-8226 leukemia, with OVCAR-3 ovarian, in the assay with NCI-H460 lung, in the assay on IGROV1 ovarian and in the assay on SK-MEL-5 melanoma was more than 100 µM each time. Moreover, the TGI in the assay with SR leukemia, with SK-MEL-28 melanoma, in the assay with MDA-N, in the assay on SN12C renal, in the assay on MDA-MB-231 breast and in the assay with NCI-H522 lung was more than 100 µM throughout. The TGI in the assay on HOP-62 NSCLC, with K-562 leukemia, in the assay with OVCAR-4 ovarian, in the assay with A498 renal, with SW-620 colon and with NCI/ADR-RES ovarian was more than 100 µM each time.

For `NCC(=O)Nc1ccccc1`, the TGI in the assay with TK-10 renal, in the assay with OVCAR-3 ovarian, with NCI-H460 lung, with IGROV1 ovarian, in the assay on SK-MEL-5 melanoma and in the assay on SR leukemia was more than 100 µM throughout. The TGI in the assay with SK-MEL-28 melanoma, in the assay on MDA-N, in the assay on SN12C renal, in the assay with MDA-MB-231 breast, in the assay on NCI-H522 lung and in the assay with HOP-62 NSCLC was more than 100 µM each time. Moreover, the TGI in the assay on K-562 leukemia, with HOP-92 NSCLC, in the assay with OVCAR-4 ovarian, with A498 renal, in the assay on SW-620 colon and with NCI/ADR-RES ovarian was more than 100 µM in each case.

With `CC1C(C)(C)C23CC12C1(OCCO1)C3Br` (stereo not given), the TGI in the assay on TK-10 renal, in the assay on RPMI-8226 leukemia, with SF-539 CNS, with OVCAR-3 ovarian, in the assay on NCI-H460 lung and in the assay on IGROV1 ovarian was more than 100 µM throughout. For the same compound, the TGI with SK-MEL-5 melanoma, in the assay with SR leukemia, with SK-MEL-28 melanoma, with MDA-N, in the assay with SN12C renal and in the assay on MDA-MB-231 breast was more than 100 µM each time. The TGI in the assay with HOP-62 NSCLC, in the assay with K-562 leukemia, with OVCAR-4 ovarian, in the assay on A498 renal, in the assay on SW-620 colon and in the assay on NCI/ADR-RES ovarian was more than 100 µM each time.

Take `C=C1C2CCC3C4(C)CCCC(C)(C(=O)O)C4CCC3(C2)C1OC(=O)/C(C)=C/C` (stereo not given): the TGI in the assay on TK-10 renal is more than 100 µM; in the assay on SF-539 CNS, 55.1 µM; in the assay on OVCAR-3 ovarian, 41 µM; in the assay with NCI-H460 lung, more than 100 µM; in the assay with IGROV1 ovarian it was more than 100 µM; with SK-MEL-5 melanoma, 75.6 µM. Moreover, the TGI in the assay on SR leukemia was 9.55 µM; in the assay with SK-MEL-28 melanoma, more than 100 µM; in the assay with MDA-N, 68.2 µM; in the assay with SN12C renal, 62.6 µM; in the assay with MDA-MB-231 breast, 46.9 µM; in the assay on NCI-H522 lung it was more than 100 µM. Further, the TGI with HOP-62 NSCLC was more than 100 µM; in the assay on HOP-92 NSCLC, 54.6 µM; in the assay with OVCAR-4 ovarian, more than 100 µM; in the assay on A498 renal, 60.4 µM; with SW-620 colon it was more than 100 µM; in the assay with NCI/ADR-RES ovarian, 53.6 µM.

Take `CCOC(=O)C12CCC(=O)N1N(C)c1ncccc1N2` (stereo not given): the TGI with TK-10 renal, in the assay on RPMI-8226 leukemia, in the assay with SF-539 CNS, with OVCAR-3 ovarian, in the assay with NCI-H460 lung and with IGROV1 ovarian was more than 100 µM in each case. The TGI with SK-MEL-5 melanoma, in the assay with SR leukemia, in the assay with SK-MEL-28 melanoma, with MDA-N, in the assay with MDA-MB-231 breast and in the assay on NCI-H522 lung was more than 100 µM in each case. The TGI with HOP-62 NSCLC, in the assay on K-562 leukemia, with OVCAR-4 ovarian, with A498 renal, with SW-620 colon and with NCI/ADR-RES ovarian was more than 100 µM throughout.
